Laboratory results published in EP0453119A1, “Modified beta adrenergic receptor” (MERCK & CO. INC., priority 1990, dated 1991).

Molecular target: T1, [Ser^113]βAR (Mesocricetus auratus, UniProt P04274, D113S)
T1 construct: pSVHAC contains the full length hamster ß₂AR cDNA cloned into the EcoRI site of pSVL; expressed in transfected cells; host or cells: mouse L cells (clonal lines, membranes)
Assay: Adenylyl cyclase stimulation in membranes of mouse L cells expressing the mutant receptor
Format: biochemical, hamster
Conditions: result in words, acids compared with the corresponding esters
Description: Mutagenesis of the ßAR gene. […] Other standard cloning techniques were performed as described by the former Manual and would be easily reproduced by anyone trained in molecular biology. An oligonucleotide 19 nucleotides in length complementary to the phage DNA surrounding the codon for Asp¹¹³ were synthesized using an Applied Biosystems Model 3A DNA synthesizer. The oligonucleotide contained mismatched positions in order to convert the codon for Asp¹¹³ (GAT) to Ser ([…]). The oligonucleotide was annealed to the phage DNA for priming and extended using Klenow DNA polymerase and T4 DNA ligase. […] The ßAR gene in this vector utilizes the SV40 early promoter, the modified splice signal, and the ßAR polyadenylation site for expression. The ligated mixture was transformed into E. coli strain DH5 (Bethesda Research Laboratories) and ampicillin resistant colonies were screened by filter hybridization using the oligonucleotide corresponding to the mutation as the hybridization probe. Plasmids were isolated from several hybridization positive colonies and mapped to insure the proper DNA insert was contained in the clone. The mutations were resolved by retransformation of the plasmid DNA into E. coli. Mutant plasmid containing colonies were again isolated by filter hybridization as above. Plasmid DNA was isolated from overnight cultures of cells by alkaline lysis and twice banding in CsCl-ethidium bromide equilibrium density gradients. […] The purity of the plasmid preparation was tested by retransformation of the DNA into E. coli followed by colony hybridization. […] Plasmid DNA was isolated as above and confirmed by restriction mapping.
(§1) Expression in mammalian cells. For the establishment of clonal cell lines expressing mutant receptors, the plasmid DNAs were transfected into mouse L cells by the CaPO₄ procedure. […] The precipitate was added to the media covering subconfluent monolayers of mouse L cells in 100 mm petri dishes and incubated at 37°C for 4 hrs. The media was removed and the cells were washed once with Dulbecco's modified minimal essential medium (DMEM). […] DMEM containing 10% fetal bovine serum was then added to the monolayers and the cells were incubated at 37°C for 12-18 hrs. The medium was changed to DMEM containing 10% fetal bovine serum and […] genticin to select for cells containing the expression vector. […] Individual colonies were isolated and expanded into cell lines.
(§2) Membranes were prepared from L cell monolayers by hypotonic lysis in 10 mM Tris, pH 7.5 for 10 min at 4°C.
(§3) The reaction was allowed to proceed for 30 min at 30°C before it was quenched at 4°C with an excess of unlabeled ATP. The ³²P-cAMP produced was determined by Dowex and alumina chromatography, as described by Salomon et al., supra.
Data Analysis. Activation constant (Kact) values for adenylyl cyclase stimulation were obtained by computer assisted nonlinear regression analysis of curves generated in the presence of increasing concentrations of compounds. The Michaelis-Menton equation was used: V=Vmax[A]/Kact+[A], where V is the level of cyclase stimulation (in pmol ³²P-cAMP/mg protein/min) measured at a given agonist concentration [A], and Vmax is the calculated maximal stimulation at infinite agonist concentration.

T1 sequence (P04274 whole entry D113S): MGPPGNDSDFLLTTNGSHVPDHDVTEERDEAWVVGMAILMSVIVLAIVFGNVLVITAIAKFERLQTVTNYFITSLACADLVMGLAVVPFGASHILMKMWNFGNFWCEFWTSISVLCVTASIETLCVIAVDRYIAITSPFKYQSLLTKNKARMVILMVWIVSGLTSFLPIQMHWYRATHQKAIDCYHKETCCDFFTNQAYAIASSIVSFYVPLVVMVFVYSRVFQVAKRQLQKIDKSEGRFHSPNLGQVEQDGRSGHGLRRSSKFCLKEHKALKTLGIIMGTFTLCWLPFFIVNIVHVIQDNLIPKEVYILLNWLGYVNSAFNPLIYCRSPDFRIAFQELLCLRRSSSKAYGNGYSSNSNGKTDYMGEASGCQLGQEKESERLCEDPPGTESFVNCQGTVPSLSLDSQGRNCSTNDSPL

Row | SMILES | activation of [Ser¹¹³]ßAR
1 | CCOC(=O)Cc1ccc(O)c(O)c1 [Compound 11] | activated
2 | O=C(O)C(=O)Cc1ccc(O)c(O)c1 [Compound 10] | less effective
3 | CCOC(=O)CCc1ccc(O)c(O)c1 [Compound 5] | activated
4 | O=C(O)CCc1ccc(O)c(O)c1 [Compound 6] | less effective
5 | CCOC(=O)CC(O)c1ccc(O)c(O)c1 (centres unmarked) [Compound 13] | activated
6 | COC(=O)/C=C/c1ccc(O)c(O)c1 [Compound 7] | activated
7 | CCOC(=O)C(=O)Cc1ccc(O)c(O)c1 [Compound 9] | activated
8 | O=C(O)/C=C/c1ccc(O)c(O)c1 [Compound 8] | less effective
9 | CCOC(=O)C(O)c1ccc(O)c(O)c1 (centres unmarked) [Compound 12] | weakly

Molecular target: T2, Wild-type βAR (Mesocricetus auratus, UniProt P04274)
T2 construct: pSVHAC contains the full length hamster ß₂AR cDNA cloned into the EcoRI site of pSVL; expressed in transfected cells; host or cells: mouse L cells (clonal lines, membranes)
T2 sequence (P04274 whole entry): as the sequence (P04274 whole entry D113S) above, with S113D counted along it
Assay: Adenylyl cyclase stimulation in membranes of mouse L cells expressing the wild-type receptor
Format: biochemical, hamster
Conditions: not given
Description: as §1, §2, §3
Data Analysis. […] The Michaelis-Menton equation was used: V=Vmax[A]/Kact+[A], where V is the level of cyclase stimulation (in pmol ³²P-cAMP/mg protein/min) measured at a given agonist concentration [A], and Vmax is the calculated maximal stimulation at infinite agonist concentration.

Row | SMILES | EC50
10 | CNC[C@H](O)c1ccc(O)c(O)c1 [Compound 2, epinephrine] | 300 nM

Molecular target: T3, [Ser¹¹³]ßAR (Mesocricetus auratus, UniProt P04274, D113S)
T3 construct: pSVHAC contains the full length hamster ß₂AR cDNA cloned into the EcoRI site of pSVL; expressed in transfected cells; host or cells: COS-7 cells (membranes)
T3 sequence (P04274 whole entry D113S): as the sequence (P04274 whole entry D113S) above
Assay: not given
Set-up: species or system hamster
Conditions: COS-7 cell membranes; equilibrium binding
Description: Membrane Preparation. COS-7 cell monolayers were washed 3 times in PBS, scraped from the flask with a rubber policeman, and centrifuged at 2000 x g for 5 min. The cell pellet was resuspended in 75 mM Tris, pH 7.4, 12.5 mM MgCl₂, […] EDTA (TME buffer) at a concentration of 10⁸ cells/ml, then diluted 1:5 with water and lysed by freezing in liquid N₂ and thawing with vigorous vortexing. Nuclei were removed by centrifugation over a cushion of 60% sucrose at 2500 x g for 15 min. The upper layer was collected, membranes pelleted by centrifugation at 40,000 x g for 15 min,and resuspended in TME at a protein concentration of 1-2 mg/ml.
Receptor Assays. ¹²⁵I-CYP binding to membranes was measured in a final volume of 250 ul of TME buffer, containing […] of membrane protein and 225 pM ¹²⁵I-CYP for 90 min at 23°C, as previously described Dixon et al. (1987), supra. Membranes were collected by filtration on GF/C glass fiber filters and bound ¹²⁵I-CYP was detected with a gamma counter. Nonspecific binding, measured in the presence of […] alprenolol, was subtracted from the total binding.

Row | SMILES | ¹²⁵I-CYP binding
11 | CC(C)(C)NCC(O)COc1cccc2[nH]c(C#N)c([125I])c12 (centres unmarked) [¹²⁵I-CYP, ¹²⁵I-cyanopindolol] | did not bind detectable levels
